Experiments:
Format in all cases: cell-based
Conditions in all cases: after 10, 20, 40 and 60 minutes at all dilutions 1:100, 1:200, 1:400, 1:800
[1] = system: Staphylococcus aureus; experiment: Antimicrobial testing by agar dilution, Staphylococcus aureus
Method: (§1) The antimicrobial properties of the 6-(3-hydroxyphenyl)-2-methoxy-4-(3-methylphenyl)nicotinonitrile (4) were studied by the method of agar dilution. Test solutions of each compound were prepared in concentration of 1% using dimethylformamide as a solvent then they are diluted in physiological solution to obtain the final experimental dilutions 1:100, 1:200, 1:400, 1:800. The effect of these substances were compared with furacillin in a controllable study. The testing microbes used were gram positive bacteria Staphylococcus aureus, gram negative bacteria Escherichia coli, Pseudomonas aeruginosa and Candida albicans fungi were taken. The experiments used for this survey were meat-pentonlu agar (EPA) for cultivation of bacteria and Saburo environment for fungi. Each experiment used 1 ml of test solution on each plate 500 min. Add 2 drops of emulsified with microbes feel. All experimental samples were taken from the agar after 10, 20, 40, 60 minutes in the environment on the basis of Patrk planted. Bacteria were cultivated at a temperature of 37° C. for 1 day and the mushroom was kept in a thermostat for 2 hours at a temperature of 28° C. in the. Then results were checked.

[2] = system: Escherichia coli; experiment: Antimicrobial testing by agar dilution, Escherichia coli
Method: as §1

[3] = system: Pseudomonas aeruginosa; experiment: Antimicrobial testing by agar dilution, Pseudomonas aeruginosa
Method: as §1

[4] = system: Candida albicans; experiment: Antimicrobial testing by agar dilution, Candida albicans
Method: as §1

Measured: inhibition activity

COc1nc(-c2cccc(O)c2)cc(-c2cccc(C)c2)c1C#N [6-(3-hydroxyphenyl)-2-methoxy-4-(3-methylphenyl)nicotinonitrile]
highest inhibition activity: all assays above
